The values that follow come from publication PMC3172082 (Nature, 2009).

Values joined by “and” are separate entries in the source; they are usually repeats but may differ in a detail not shown here. Identical values can stand only once.

The target of one series is mycobacterial proteasome (Mycobacterium bovis, UniProt A1KKF3). The series is described as follows: cell-based. On the set-up: species or system Mycobacterium bovis var. BCG. To be noted: for inhibition at 50 µM: read-out: inhibition of mycobacterial proteasome activity in intact BCG.
Chain of mycobacterial proteasome (A1KKF3 whole entry, looked up): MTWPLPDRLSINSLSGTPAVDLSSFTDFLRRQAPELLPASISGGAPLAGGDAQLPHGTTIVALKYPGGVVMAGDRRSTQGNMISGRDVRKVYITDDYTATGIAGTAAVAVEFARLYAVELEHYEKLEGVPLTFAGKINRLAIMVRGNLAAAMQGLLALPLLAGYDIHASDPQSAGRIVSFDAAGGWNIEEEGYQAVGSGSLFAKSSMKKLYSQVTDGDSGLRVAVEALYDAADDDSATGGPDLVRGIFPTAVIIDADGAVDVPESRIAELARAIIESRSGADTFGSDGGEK
Another series relates to BCG. The class given is cell-based, Mycobacterium bovis var. BCG.
The test system of series [1] is human monocyte-derived macrophages. The series is described as follows: Cytotoxicity to human monocyte-derived macrophages. The class given is cell-based. To be noted: 7 days incubation; GL5 and HT1171 up to 75 μM.
In the next series the test system is Mtb Erdman. Type of series: cell-based, Mycobacterium tuberculosis. To be noted: non-replicating Mtb.
The subject of another series is Mtb 20SOG. Type of series: biochemical, Mycobacterium tuberculosis. To be noted: by partition ratios.
The target of the next series is Mtb20SOG (Mycobacterium tuberculosis, UniProt P9WHT9). The series is described as follows: High throughput screen, Mtb20SOG hydrolysis of Suc-LLVY-AMC. The class given is biochemical. To be noted: 33 μM test compounds.
Chain of Mtb20SOG (P9WHT9 whole entry, looked up): as the sequence (A1KKF3 whole entry, looked up) above

Regarding `CSc1sc(C)cc1-c1nsc(=O)o1` [GL5, 5-(5-methyl-2-(methylthio)thiophen-3-yl)-1,3,4-oxathiazol-2-one], on mycobacterial proteasome, the “reduction of proteasome activity in intact BCG” value was > 80% and ~ 50%; the inhibition (commonly how much of the control response was suppressed) at 50 µM was about 90%. Moreover, the “killing of BCG (in words)” value with BCG was “killed BCG alone and in synergy with sub-bacteriostatic fluxes of nitric oxide”. Moreover, in series [1], the “toxicity to human macrophages” value is recorded as “no apparent toxicity”. Also, in the series on Mtb Erdman (dose-dependent, 50 μM DETA-NO), the “Mtb killed over 4 days in synergy with nitric oxide” value is reported as 1.5-2.5 log10. Moreover, in the series on Mtb 20SOG, the “fold more effective against Mtb proteasomes than human proteasomes” value is given as over 1000 fold.

As to `CC(C)C[C@H](NC(=O)[C@H](Cc1ccccc1)NC(=O)c1cnccn1)B(O)O` [bortezomib, reference compound], the inhibition at 50 µM at mycobacterial proteasome worked out at 52%. In addition, the “toxicity to human macrophages” value in series [1] was “toxic”. Further, the “mycobactericidal activity compared with GL5 and HT1171 (in words)” value in the series with Mtb Erdman (DETA-NO, 4 days) was “less mycobactericidal”.

With `Cc1cc(-c2nsc(=O)o2)c(S(C)(=O)=O)s1` [GL6, 5-(5-methyl-2-(methylsulfonyl)thiophen-3-yl)-1,3,4-oxathiazol-2-one], the “activity in screen against Mtb20SOG” value at Mtb20SOG is “inactive”.
